Earlier results as cited in patent publication US20050013858A1, “Oral pharmaceutical compositions containing terbinafine” (priority 2001, published 2005).

Key:
[1] = molecular target: CYP2D6 (Homo sapiens, UniProt P10635)
[2] = steady state, in comparison to the single dose

CYP2D6, sequence (P10635 whole entry): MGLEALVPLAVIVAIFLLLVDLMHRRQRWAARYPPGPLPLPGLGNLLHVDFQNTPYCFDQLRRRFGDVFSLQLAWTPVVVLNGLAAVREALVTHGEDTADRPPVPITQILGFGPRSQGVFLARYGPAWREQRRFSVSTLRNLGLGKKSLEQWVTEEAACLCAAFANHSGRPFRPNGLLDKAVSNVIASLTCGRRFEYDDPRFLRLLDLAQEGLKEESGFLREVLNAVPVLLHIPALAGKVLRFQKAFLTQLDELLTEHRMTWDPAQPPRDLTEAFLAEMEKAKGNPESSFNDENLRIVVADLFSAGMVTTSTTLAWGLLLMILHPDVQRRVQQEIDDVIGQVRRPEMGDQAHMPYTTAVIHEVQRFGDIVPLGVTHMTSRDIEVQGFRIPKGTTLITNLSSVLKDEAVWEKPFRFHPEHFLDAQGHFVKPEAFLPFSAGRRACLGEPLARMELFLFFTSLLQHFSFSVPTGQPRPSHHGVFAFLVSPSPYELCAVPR

- increase in AUC (administered with a fat-rich meal): 42%
- effective half-life (in vivo): ca. 36 hours
- reduction of clearance (patients with renal impairment (creatinine clearance ≤50 ml/min) or hepatic cirrhosis): approximately 50%
- area under the curve over 24 hours (AUC) (single 250 mg terbinafine dose): about 4.76 microgram.hour/millilitre
- factor of AUC increase in steady state versus single dose [2]: 2.5
- increase of Cmax in steady state versus single dose [2]: 25%
- inhibition of CYP2D6 [1]: potent inhibitor
SMILES: CN(C/C=C/C#CC(C)(C)C)Cc1cccc2ccccc12 [terbinafine]
